Experimental data taken from patent publication US8741897B2, “Glucocorticoid mimetics, methods of making them, pharmaceutical compositions and uses thereof” (Boehringer Ingelheim Pharmaceuticals Inc., priority 2003, dated 2014).

Assays:
[1] = biological target: T1, human glucocorticoid receptor (GR) complex (Homo sapiens, UniProt P04150); assay: Glucocorticoid receptor competitive binding assay (fluorescence polarization, TAMRA-labeled dexamethasone probe); conditions: compounds of Formula (IA)
T1 construct: made in house; host or cells: insect expression system (baculovirus lysate)
T1 sequence (P04150 1-777): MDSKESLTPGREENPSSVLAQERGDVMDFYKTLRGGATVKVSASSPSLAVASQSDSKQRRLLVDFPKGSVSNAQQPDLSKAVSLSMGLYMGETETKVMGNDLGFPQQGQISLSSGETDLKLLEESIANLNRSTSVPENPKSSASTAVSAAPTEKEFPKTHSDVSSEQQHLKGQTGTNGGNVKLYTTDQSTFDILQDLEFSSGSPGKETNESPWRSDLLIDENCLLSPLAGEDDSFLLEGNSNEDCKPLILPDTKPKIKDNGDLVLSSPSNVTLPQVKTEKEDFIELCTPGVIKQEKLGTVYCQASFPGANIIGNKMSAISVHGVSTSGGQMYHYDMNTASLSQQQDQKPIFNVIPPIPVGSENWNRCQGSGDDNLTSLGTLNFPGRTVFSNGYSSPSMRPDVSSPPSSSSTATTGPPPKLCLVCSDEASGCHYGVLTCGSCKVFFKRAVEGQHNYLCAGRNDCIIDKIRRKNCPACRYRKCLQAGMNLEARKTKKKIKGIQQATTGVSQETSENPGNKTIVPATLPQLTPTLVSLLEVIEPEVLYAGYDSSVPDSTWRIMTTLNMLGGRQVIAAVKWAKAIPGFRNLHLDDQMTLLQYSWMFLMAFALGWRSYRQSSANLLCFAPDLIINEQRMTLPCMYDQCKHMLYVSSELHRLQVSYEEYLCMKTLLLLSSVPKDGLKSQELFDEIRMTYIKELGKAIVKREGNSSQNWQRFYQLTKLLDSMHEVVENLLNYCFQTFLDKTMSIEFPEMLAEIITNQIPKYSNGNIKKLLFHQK
Protocol: Compounds of the invention were evaluated for binding to the steroid receptor by a fluorescence polarization competitive binding assay. Detailed descriptions for preparation of recombinant glucocorticoid receptor (GR) complex used in the assay is described in U.S. patent application Pub.
A. Glucocorticoid Receptor Competitive Binding Assay
Step 1. Characterization of the Fluorescent Probe
The wavelengths for maximum excitation and emission of the fluorescent probe should first be measured. An example of such a probe is rhodamine (TAMRA)-labeled dexamethasone.
The affinity of the probe for the steroid receptor was then determined in a titration experiment. The fluorescence polarization value of the probe in assay buffer was measured on an SLM-8100 fluorometer using the excitation and emission maximum values described above. Aliquots of expression vector lysate were added and fluorescence polarization was measured after each addition until no further change in polarization value was observed. Non-linear least squares regression analysis was used to calculate the dissociation constant of the probe from the polarization values obtained for lysate binding to the probe.
Step 2. Screening for Inhibitors of Probe Binding
This assay uses fluorescence polarization (FP) to quantitate the ability of test compounds to compete with tetramethyl rhodamine (TAMRA)-labeled dexamethasone for binding to a human glucocorticoid receptor (GR) complex prepared from an insect expression system. The assay buffer was: 10 mM TES, 50 mM KCl, 20 mM Na2MoO4.2H2O, 1.5 mM EDTA, 0.04% w/v CHAPS, 10% v/v glycerol, 1 mM dithiothreitol, pH 7.4. Test compounds were dissolved to 1 mM in neat DMSO and then further diluted to 10× assay concentration in assay buffer supplemented with 10% v/v DMSO. Test compounds were serially diluted at 10× assay concentrations in 10% DMSO-containing buffer in 96-well polypropylene plates. Binding reaction mixtures were prepared in 96-well black Dynex microtiter plates by sequential addition of the following assay components to each well: 15 μL of 10× test compound solution, 85 μL of GR-containing baculovirus lysate diluted 1:170 in assay buffer, and 50 μL of 15 nM TAMRA-labeled dexamethasone. Positive controls were reaction mixtures containing no test compound; negative controls (blanks) were reaction mixtures containing 0.7 μM to 2 μM dexamethasone. […] IC50 values were determined by iterative non-linear curve fitting of the FP signal data to a 4-parameter logistic equation.

[2] = system: glucocorticoid receptor function; assay: one or more of the above assays (GR binding and glucocorticoid receptor cell assays: aromatase, IL-6, TAT, MMTV-Luc, IL-8, ICAM-Luc); type: cell-based; conditions: assay not specified per compound

Structure (SMILES) | activity in the GR binding assay [1] | activity as agonists of the glucocorticoid receptor function in one or more of the above assays [2]
Cc1ccc(F)cc1C(C)(C)CC(O)(Cc1cc2ncncc2[nH]1)C(F)(F)F (centres unmarked) [1,1,1-Trifluoro-4-(5-fluoro-2-methylphenyl)-4-methyl-2-(5H-pyrrolo[3,2-d]pyrimidin-6-ylmethyl)pentan-2-ol] | potent activity | potent agonists
CC(C)(CC(O)(Cc1ccnc2ccccc12)C(F)(F)F)c1ccc(F)cc1 (centres unmarked) [1,1,1-Trifluoro-4-(4-fluorophenyl)-4-methyl-2-quinolin-4-ylmethylpentan-2-ol] | potent activity | potent agonists
Cc1cccc(C)c1C(C)(C)CC(O)(Cc1cc2ccccc2[nH]1)C(F)(F)F (centres unmarked) [4-(2,6-Dimethylphenyl)-1,1,1-trifluoro-2-(1H-indol-2-ylmethyl)-4-methylpentan-2-ol] | potent activity | potent agonists
COc1ccc(F)cc1C(C)(C)CC(O)(Cc1cc2cc(C(N)=O)ccc2[nH]1)C(F)(F)F (centres unmarked) [2-[4-(5-Fluoro-2-methoxyphenyl)-2-hydroxy-4-methyl-2-trifluoromethylpentyl]-1H-indole-5-carboxylic acid amide] | potent activity | potent agonists
Cc1cc(C)c(O)c(C(C)(C)CC(O)(Cc2[nH]c3ccccc3c2C#N)C(F)(F)F)c1 (centres unmarked) [2-[2-Hydroxy-4-(2-hydroxy-3,5-dimethylphenyl)-4-methyl-2-trifluoromethylpentyl]-1H-indole-3-carbonitrile] | potent activity | potent agonists
COc1ccc(F)cc1C(C)(C)CC(O)(Cc1cc2cc(NC(C)=O)ccc2[nH]1)C(F)(F)F (centres unmarked) [N-{2-[4-(5-Fluoro-2-methoxyphenyl)-2-hydroxy-4-methyl-2-trifluoromethylpentyl]-1H-indol-5-yl}acetamide] | potent activity | potent agonists
COc1ccc(F)cc1C(C)(C)CC(O)(Cc1[nH]c2ccncc2c1CN(C)C)C(F)(F)F (centres unmarked) [2-(3-Dimethylaminomethyl-1H-pyrrolo[3,2-c]pyridin-2-ylmethyl)-1,1,1-trifluoro-4-(5-fluoro-2-methoxyphenyl)-4-methylpentan-2-ol] | potent activity | potent agonists
CC(C)(CC(O)(Cc1cc2ccccc2[nH]1)C(F)(F)F)c1ccc(C(F)(F)F)cc1 (centres unmarked) [1,1,1-Trifluoro-2-(1H-indol-2-ylmethyl)-4-methyl-4-(4-trifluoromethylphenyl)pentan-2-ol] | potent activity | –
CC(C)(CC(O)(Cc1cc2cc(-c3ccccc3)ccc2[nH]1)C(F)(F)F)c1cc(F)cc2c1OCC2 (centres unmarked) [1,1,1-Trifluoro-4-(5-fluoro-2,3-dihydrobenzofuran-7-yl)-4-methyl-2-(5-phenyl-1H-indol-2-ylmethyl)pentan-2-ol] | potent activity | –
Cc1ccc(F)cc1C(C)(C)CC(O)(Cc1cc2nnccc2[nH]1)C(F)(F)F (centres unmarked) [1,1,1-Trifluoro-4-(5-fluoro-2-methylphenyl)-4-methyl-2-(5H-pyrrolo[3,2-c]pyridazin-6-ylmethyl)pentan-2-ol] | potent activity | –
COc1ccc(F)cc1C(C)(C)CC(O)(Cc1cc2cc(C(=O)N3CCC(O)CC3)ccc2[nH]1)C(F)(F)F (centres unmarked) [{2-[4-(5-Fluoro-2-methoxyphenyl)-2-hydroxy-4-methyl-2-trifluoromethylpentyl]-1H-indol-5-yl}(4-hydroxypiperidin-1-yl)methanone] | potent activity | –
COc1ccc(F)cc1C(C)(C)CC(O)(Cc1cc2cc(C(=O)NCCCC(=O)O)ccc2[nH]1)C(F)(F)F (centres unmarked) [4-({2-[4-(5-Fluoro-2-methoxyphenyl)-2-hydroxy-4-methyl-2-trifluoromethylpentyl]-1H-indole-5-carbonyl}amino)butyric acid] | potent activity | –
COc1ccc(F)cc1C(C)(C)CC(O)(Cn1ccc2cnccc21)C(F)(F)F (centres unmarked) [1,1,1-Trifluoro-4-(5-fluoro-2-methoxyphenyl)-4-methyl-2-pyrrolo[3,2-c]pyridin-1-ylmethylpentan-2-ol] | potent activity | –
COc1ccc(F)cc1C(C)(C)CC(O)(Cc1cc2cc(C(=O)OCC[Si](C)(C)C)ccc2[nH]1)C(F)(F)F (centres unmarked) [2-[4-(5-Fluoro-2-methoxyphenyl)-2-hydroxy-4-methyl-2-trifluoromethylpentyl]-1H-indole-5-carboxylic acid-2-trimethylsilanylethyl ester] | potent activity | –
COc1ccc(F)cc1C(C)(C)CC(O)(Cc1cc2ccc(C(=O)N3CCOCC3)cc2[nH]1)C(F)(F)F (centres unmarked) [{2-[4-(5-Fluoro-2-methoxyphenyl)-2-hydroxy-4-methyl-2-trifluoromethylpentyl]-1H-indol-6-yl}morpholin-4-ylmethanone] | potent activity | –
CN(C)c1ccc(C(C)(C)CC(O)(Cc2cc3ccccc3[nH]2)C(F)(F)F)cc1 (centres unmarked) [4-(4-Dimethylaminophenyl)-1,1,1-trifluoro-2-(1H-indol-2-ylmethyl)-4-methylpentan-2-ol] | potent activity | –
COc1ccc(F)cc1C(C)(C)CC(O)(Cc1cc2ccc(C(N)=O)cc2[nH]1)C(F)(F)F (centres unmarked) [2-[4-(5-Fluoro-2-methoxyphenyl)-2-hydroxy-4-methyl-2-trifluoromethylpentyl]-1H-indole-6-carboxylic acid amide] | potent activity | –
CC(C)(CC(O)(Cc1[nH]c2ccccc2c1Br)C(F)(F)F)c1cccc(F)c1 (centres unmarked) [2-(3-Bromo-1H-indol-2-ylmethyl)-1,1,1-trifluoro4-(3-fluorophenyl)-4-methylpentan-2-ol] | potent activity | –
Cc1ccc(F)cc1C(C)(C)CC(O)(Cc1cc2cc(=O)[nH]cc2[nH]1)C(F)(F)F (centres unmarked) [2-[4-(5-Fluoro-2-methylphenyl)-2-hydroxy-4-methyl-2-trifluoromethylpentyl]-1,6-dihydropyrrolo[2,3-c]pyridin-5-one] | potent activity | –
COc1ccc(F)cc1C(C)(C)CC(O)(Cc1cc2cc(C(=O)N3CCCCC3)ccc2[nH]1)C(F)(F)F (centres unmarked) [{2-[4-(5-Fluoro-2-methoxyphenyl)-2-hydroxy-4-methyl-2-trifluoromethylpentyl]-1H-indol-5-yl}piperidin-1-ylmethanone] | potent activity | –
CN(C)C(=O)c1ccc2cc(CC(O)(CC(C)(C)c3cc(F)ccc3O)C(F)(F)F)[nH]c2c1 (centres unmarked) [2-[4-(5-Fluoro-2-hydroxyphenyl)-2-hydroxy-4-methyl-2-trifluoromethylpentyl]-1H-indole-6-carboxylic acid dimethylamide] | potent activity | –
COc1ccc(F)cc1C(C)(C)CC(O)(Cc1cc2cc(C(=O)NCC(=O)O)ccc2[nH]1)C(F)(F)F (centres unmarked) [({2-[4-(5-Fluoro-2-methoxyphenyl)-2-hydroxy-4-methyl-2-trifluoromethylpentyl]-1H-indole-5-carbonyl}amino)acetic acid] | potent activity | –
